According to patent publication US20090221573A1, “Use of Activators of Soluble Guanylate Cyclase for Promoting Wound Healing” (Bayer HealthCare AG, priority 2005, published 2009):
Where two headings read alike, the source gives them in different places.

Tested on: smooth muscle cells of the human coronary artery
Assay: Inhibition of the horizontal migration of smooth muscle cells (wounded monolayer)
Type: cell-based
Settings: read-out: Inhibition of the horizontal migration of smooth muscle cells of the human coronary artery, IC50
Experimental: Smooth muscle cells of the human coronary artery are seeded in a 6-well plate (1.5×10^5 cells/well) (Clonetics) and cultured in SmGM2 medium (Clonetics) for 48 h. Before the plates are used, the wells are coated with vitronectin (50 ng/cm^2; Gibco BRL). Half of the confluent cell monolayer is removed with the aid of a cell scraper (wounding). In the cell-free region, the vitronectin coating is at least 50% retained in this case. For the test, unless mentioned otherwise, the culture medium is replaced by MCDB-131/0.2% BSA (Gibco/BRL) medium. The test substances are added in various concentrations, and the migration distance in the cell-free region is followed with the aid of a microscope over 24 h and 48 h. Each measurement point represents the average of four measured regions. PDGF, as potent chemotactic factor for SMC, is used as positive control (1 nM, 10 nM, R&D systems). The RGD tripeptide (Bachem) is employed to inhibit the integrin-induced migration. To determine the antagonistic activity of the test substances, the cells are stimulated in the presence of the substance with 1 nM or 10 nM PDGF, and the migration distances are determined in relation to the PDGF-induced migration distances.

| SMILES | IC50 (48 h) [nM] | IC50 (incubation time 48 h) [nM] |
| --- | --- | --- |
| O=C(O)CCCCN(CCc1ccccc1OCc1ccc(CCc2ccccc2)cc1)Cc1ccc(C(=O)O)cc1 [Compound I] | 5 |  |
| COC(=O)N(C)c1c(N)nc(-c2nn(Cc3ccccc3F)c3ncccc23)nc1N [IV] |  | 10 |
| COC(=O)Nc1c(N)nc(-c2nn(Cc3ccccc3F)c3ncccc23)nc1N [IVa] | 30 |  |
